Results taken from patent US3985740A, “7-[D-(α-amino-α-phenyl-, 2-thienyl- and 3-thienylacetamido)]-3-(5-methylthiazol-2-yl)carbonylthiomethyl-3-cephem -4-carboxylic acids” (Bristol-Myers Company, priority 1974, dated 1976).
≈ marks a conversion by molar mass, not a printed value. Where two headings read alike, the source gives them in different places.

Tests used:
S. aureus Smith A9537 = assay: M.I.C. by tube dilution; format: cell-based; settings: Staphylococcus aureus, overnight 37° C.
[1] = tested on: S. aureus BX 1633-2 A9606; assay: M.I.C. by tube dilution; format: cell-based; settings: overnight 37° C.; for MIC: Staphylococcus aureus
[2] = tested on: S. aureus methicillin-resistant A15097; assay: M.I.C. by tube dilution; format: cell-based; settings: at 10^-^3 dilution, overnight 37° C.; for MIC: Staphylococcus aureus
S. aureus A9748 = assay: M.I.C. by tube dilution; format: cell-based; settings: overnight 37° C.; for MIC: Staphylococcus aureus
Sal. enteritidis A9531 = assay: M.I.C. by tube dilution; format: cell-based; settings: at 10^-^4 dilution, overnight 37° C.; for MIC: Salmonella enterica, ENTERITIDIS
E. coli Juhl A15119 = assay: M.I.C. by tube dilution; format: cell-based; settings: Escherichia coli, JUHLA15119
E. coli A9675 = assay: M.I.C. by tube dilution; format: cell-based; settings: at 10^-^4 dilution, overnight 37° C.; for MIC: Escherichia coli, A9675
K. pneumoniae A9977 = assay: M.I.C. by tube dilution; format: cell-based; settings: at 10^-^4 dilution, overnight 37° C.; for MIC: Klebsiella pneumoniae, A9977
K. pneumoniae A15130 = assay: M.I.C. by tube dilution; format: cell-based; settings: at 10^-^4 dilution, overnight 37° C.; for MIC: Klebsiella pneumoniae, A15130
Pr. mirabilis A9900 = assay: M.I.C. by tube dilution; format: cell-based; settings: at 10^-^4 dilution, overnight 37° C.; for MIC: Proteus mirabilis, A9900
Pr. morganii A15153 = assay: M.I.C. by tube dilution; format: cell-based; settings: Morganella morganii
Ps. aeruginosa A9843A = assay: M.I.C. by tube dilution; format: cell-based; settings: Pseudomonas aeruginosa
Ser. marcescens A20019 = assay: M.I.C. by tube dilution; format: cell-based; settings: Serratia marcescens
D. pneumoniae A9585 = assay: M.I.C. by tube dilution; format: cell-based; settings: Streptococcus pneumoniae, D. pneumoniae + 5% serum, 50% Nutrient Broth - 45% Antibiotic Assay Broth, overnight 37° C.
Str. pyogenes A9604 = assay: M.I.C. by tube dilution; format: cell-based; settings: Streptococcus pyogenes, Str. pyogenes + 5% serum, 50% Nutrient Broth - 45% Antibiotic Assay Broth, overnight 37° C.
[3] = Blood levels in the mouse after oral administration; format: in vivo; settings: mouse, oral, 100 mgm./kg.; for concentration at 0.5 h / concentration at 1 h / concentration at 2 h / concentration at 3.5 h: blood, 100 mg/kg, read-out: Blood Level; for concentration at 0.5 h / Blood Level: 0.5 hrs. after administration; for concentration at 1 h: 1 hr. after administration; for concentration at 2 h: 2 hrs. after administration; for concentration at 3.5 h: 3.5 hrs. after administration
Protocol: Blood levels in the mouse after oral administration were
determined with the following results:

[4] = SMITHA9537, + 50% serum, at 10^-^4 dilution, read-out: M.I.C.
[5] = SMITHA9537, at 10^-^4 dilution, read-out: M.I.C.
[6] = BX16332A9606, at 10^-^2 dilution, read-out: M.I.C.
[7] = BX16332A9606, at 10^-^3 dilution, read-out: M.I.C.
[8] = A9748, at 10^-^2 dilution, read-out: M.I.C.
[9] = A9748, at 10^-^3 dilution, read-out: M.I.C.
[10] = at 10^-^4 dilution, overnight 37° C., read-out: M.I.C.

Row | SMILES | MIC [2] [µg/mL] | MIC (K. pneumoniae A15130) [µg/mL] | MIC (Pr. morganii A15153) [µg/mL] | MIC (Ps. aeruginosa A9843A) [µg/mL] | MIC (Ser. marcescens A20019) [µg/mL] | MIC (D. pneumoniae A9585) [µg/mL] | MIC (Str. pyogenes A9604) [µg/mL] | MIC (S. aureus Smith A9537; [4]) [µg/mL] | MIC (S. aureus Smith A9537; [5]) [µg/mL] | MIC [1, 6] [µg/mL] | MIC [1, 7] [µg/mL] | MIC (S. aureus A9748; [8]) [µg/mL] | MIC (S. aureus A9748; [9]) [µg/mL] | MIC (Sal. enteritidis A9531; read-out: M.I.C.) [µg/mL] | MIC (E. coli Juhl A15119; [10]) [µg/mL] | MIC (E. coli A9675; read-out: M.I.C.) [µg/mL] | MIC (K. pneumoniae A9977; read-out: M.I.C.) [µg/mL] | MIC (Pr. mirabilis A9900; read-out: M.I.C.) [µg/mL] | concentration at 0.5 h [3] [ng/mL] | concentration at 1 h [3] [ng/mL] | further results
1 | CC1=C(C(=O)O)N2C(=O)[C@@H](NC(=O)[C@H](N)c3ccccc3)[C@H]2SC1 [cephalexin, reference compound] | 32 (≈ 92.1 µM) | 16 (≈ 46.1 µM) | > 125 | > 125 | > 125 | – | – | – | – | – | – | – | – | – | – | – | – | – | – | – | MIC (S. aureus Smith A9537; SMITHA9537, + 50% serum, at 10^-^4 dilution): 2.5 µg/mL; MIC ([1]; BX16332A9606, at 10^-^2 dilution): 8 µg/mL (≈ 23 µM); MIC ([1]; BX16332A9606, at 10^-^3 dilution): 4 µg/mL (≈ 11.5 µM); M.I.C. ([1]; at 10^-^2 dilution): 4 µg/mL; M.I.C. ([1]; at 10^-^3 dilution): 2 µg/mL; M.I.C. [2]: 63 µg/mL; MIC (S. aureus A9748; A9748, at 10^-^2 dilution): 125 µg/mL (≈ 360 µM); MIC (S. aureus A9748; A9748, at 10^-^3 dilution): 32 µg/mL (≈ 92.1 µM); M.I.C. (S. aureus A9748; at 10^-^2 dilution): 63 µg/mL; M.I.C. (S. aureus A9748; at 10^-^3 dilution): 63 µg/mL; MIC (Sal. enteritidis A9531): 4 µg/mL (≈ 11.5 µM); M.I.C. (Sal. enteritidis A9531): 2 µg/mL; MIC (E. coli Juhl A15119): 8 µg/mL (≈ 23 µM); MIC (E. coli A9675): 16 µg/mL (≈ 46.1 µM); M.I.C. (E. coli A9675): 32 µg/mL; MIC (K. pneumoniae A9977): 8 µg/mL (≈ 23 µM); M.I.C. (K. pneumoniae A9977): 4 µg/mL; M.I.C. (K. pneumoniae A15130): 32 µg/mL; MIC (Pr. mirabilis A9900): 4 µg/mL (≈ 11.5 µM); M.I.C. (Pr. mirabilis A9900): 8 µg/mL
2 | Cc1csc(C(=O)SCC2=C(C(=O)O)N3C(=O)C(NC(=O)[C@H](N)c4ccccc4)[C@H]3SC2)n1 (stereo partly drawn) [Compound 556, 7-[D-α-aminophenylacetamido]-3-(4-methylthiazol-2-yl)carbonylthiomethyl-3-cephem-4-carboxylic acid] | 4 (≈ 7.93 µM) | 125 (≈ 248 µM) | 125 (≈ 248 µM) | 125 (≈ 248 µM) | – | 1.3 | 2.5 | 63 | 1.3 (≈ 2.58 µM) | 4 (≈ 7.93 µM) | 1.3 (≈ 2.58 µM) | 8 (≈ 15.9 µM) | 4 (≈ 7.93 µM) | 1 (≈ 1.98 µM) | 32 (≈ 63.4 µM) | 32 (≈ 63.4 µM) | 32 (≈ 63.4 µM) | 32 (≈ 63.4 µM) | 15200 | 16200 | MIC (Ser. marcescens A20019; [10]): 63 µg/mL (≈ 125 µM); concentration at 2 h [3]: 7800 ng/mL; concentration at 3.5 h [3]: < 2100 ng/mL; Blood Level [3]: 15.2 µg/mL
3 | N[C@@H](C(=O)NC1C(=O)N2C(C(=O)O)=C(CSC(=O)c3cncs3)CS[C@H]12)c1ccccc1 (stereo partly drawn) [Compound 602, 7-[D-(-)-α-aminophenylacetamido]-3-(thiazol-5-yl)carbonylthiomethyl-3-cephem-4-carboxylic acid] | 4 (≈ 8.15 µM) | – | 125 (≈ 255 µM) | > 125 | > 125 | 0.6 | 0.6 | > 63 | 0.3 (≈ 0.612 µM) | 16 (≈ 32.6 µM) | 1.3 (≈ 2.65 µM) | 63 (≈ 128 µM) | 8 (≈ 16.3 µM) | 0.3 (≈ 0.612 µM) | 4 (≈ 8.15 µM) | 16 (≈ 32.6 µM) | 16 (≈ 32.6 µM) | 16 (≈ 32.6 µM) | 11700 | 17600 | MIC (K. pneumoniae A15130; read-out: M.I.C.): 32 µg/mL (≈ 65.2 µM); concentration at 2 h [3]: 9700 ng/mL; concentration at 3.5 h [3]: 3300 ng/mL
4 | Cc1nc(C(=O)SCC2=C(C(=O)O)N3C(=O)C(NC(=O)[C@H](N)c4ccccc4)[C@H]3SC2)cs1 (stereo partly drawn) [Compound 607, 7-[D-α-aminophenylacetamido]-3-(2-methylthiazol-4-yl)carbonylthiomethyl-3-cephem-4-carboxylic acid] | 8 (≈ 15.9 µM) | 125 (≈ 248 µM) | – | > 125 | > 125 | 0.16 | 0.16 | 63 | 0.3 (≈ 0.595 µM) | 4 (≈ 7.93 µM) | 0.6 (≈ 1.19 µM) | 16 (≈ 31.7 µM) | 8 (≈ 15.9 µM) | 0.6 (≈ 1.19 µM) | 8 (≈ 15.9 µM) | 16 (≈ 31.7 µM) | 16 (≈ 31.7 µM) | 8 (≈ 15.9 µM) | 1200 | 1400 | MIC (Pr. morganii A15153; [10]): 32 µg/mL (≈ 63.4 µM); concentration at 2 h [3]: 1300 ng/mL; concentration at 3.5 h [3]: 1000 ng/mL; Blood Level [3]: 1.2 µg/mL
